# Reference: ChEMBL document CHEMBL1201862, “PubChem BioAssay data set” (2004)
#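 These data come from cells grown in 96-well plates and exposed to compound for 48 hours at five concentrations. GI50 = concentration required for 50% inhibition of growth.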 Calls of active or inactive are those of the source. Rule as the data show it: active = GI50 up to about 1.1 µM and inactive = higher.
# What was measured:
# Assay in all cases: growth of human tumour cells (NCI), 48 h
# UO-31 = test system: UO-31
# DLD-1 = test system: DLD-1
# HCT-15 = test system: HCT-15
# RPMI-8226 = test system: RPMI-8226
# OVCAR-8 = test system: OVCAR-8
# SF-268 = test system: SF-268
# SK-MEL-2 = test system: SK-MEL-2
# M19-MEL = test system: M19-MEL
# HCT-116 = test system: HCT-116
# DMS-273 = test system: DMS-273
# K562 = test system: K562
# NCI/ADR-RES = test system: NCI/ADR-RES
# SN12C = test system: SN12C
# UACC-62 = test system: UACC-62
# DMS-114 = test system: DMS-114
# KM12 = test system: KM12
# HCC 2998 = test system: HCC 2998
# SF-295 = test system: SF-295
# HL-60 = test system: HL-60
# CCRF-CEM = test system: CCRF-CEM
# EKVX = test system: EKVX
# MCF7 = test system: MCF7
# XF498 = test system: XF498
# KM-20L2 = test system: KM-20L2
# A549 = test system: A549
# NCI-H460 = test system: NCI-H460
# SK-OV-3 = test system: SK-OV-3
# RXF 393 = test system: RXF 393
# HOP-18 = test system: HOP-18
# COLO 205 = test system: COLO 205
# A498 = test system: A498
# NCI-H23 = test system: NCI-H23
# U-251 = test system: U-251
# NCI-H522 = test system: NCI-H522
# UACC-257 = test system: UACC-257
# OVCAR-3 = test system: OVCAR-3
# SNB-78 = test system: SNB-78
# HOP-92 = test system: HOP-92
# HT-29 = test system: HT-29
# OVCAR-5 = test system: OVCAR-5
# LOX IMVI = test system: LOX IMVI
# HOP-62 = test system: HOP-62
# SNB-19 = test system: SNB-19
# NCI-H226 = test system: NCI-H226
# SK-MEL-28 = test system: SK-MEL-28
# SF-539 = test system: SF-539
# SW-620 = test system: SW-620
# Malme-3M = test system: Malme-3M
# OVCAR-4 = test system: OVCAR-4
# IGROV-1 = test system: IGROV-1
# SK-MEL-5 = test system: SK-MEL-5
# MOLT-4 = test system: MOLT-4
# SNB-75 = test system: SNB-75
# CAKI-1 = test system: CAKI-1
smiles,measurement,setting,value
Nc1ccc(/N=N/c2ccc(/C=C/c3ccc(/N=N/c4ccc(N)c5ccc(S(=O)(=O)O)cc45)cc3S(=O)(=O)O)c(S(=O)(=O)O)c2)c2cc(S(=O)(=O)O)ccc12,GI50,UO-31,> 100 µM (inactive)
same,GI50,DLD-1,> 100 µM (inactive)
same,GI50,HCT-15,> 100 µM
same,GI50,RPMI-8226,> 100 µM (inactive)
same,GI50,OVCAR-8,> 100 µM (inactive)
same,GI50,SF-268,> 100 µM (inactive)
same,GI50,SK-MEL-2,> 100 µM (inactive)
same,GI50,M19-MEL,> 100 µM (inactive)
same,GI50,HCT-116,> 100 µM (inactive)
same,GI50,DMS-273,> 88.1 µM (inactive)
same,GI50,K562,> 100 µM (inactive)
same,GI50,NCI/ADR-RES,> 100 µM (inactive)
same,GI50,SN12C,> 100 µM (inactive)
same,GI50,UACC-62,> 100 µM (inactive)
same,GI50,DMS-114,> 100 µM (inactive)
same,GI50,KM12,> 100 µM (inactive)
same,GI50,HCC 2998,> 100 µM (inactive)
same,GI50,SF-295,> 100 µM (inactive)
same,GI50,HL-60,> 100 µM (inactive)
same,GI50,CCRF-CEM,> 100 µM (inactive)
same,GI50,EKVX,> 100 µM (inactive)
same,GI50,MCF7,> 100 µM (inactive)
same,GI50,XF498,> 62.2 µM (inactive)
same,GI50,KM-20L2,> 100 µM (inactive)
same,GI50,A549,> 100 µM (inactive)
same,GI50,NCI-H460,> 100 µM (inactive)
same,GI50,SK-OV-3,> 100 µM (inactive)
same,GI50,RXF 393,> 100 µM (inactive)
same,GI50,HOP-18,> 100 µM (inactive)
same,GI50,COLO 205,> 100 µM (inactive)
same,GI50,A498,> 100 µM (inactive)
same,GI50,NCI-H23,> 100 µM (inactive)
same,GI50,U-251,> 100 µM (inactive)
same,GI50,NCI-H522,> 100 µM (inactive)
same,GI50,UACC-257,> 100 µM (inactive)
same,GI50,OVCAR-3,> 100 µM (inactive)
same,GI50,SNB-78,> 100 µM (inactive)
same,GI50,HOP-92,88.1 µM (inactive)
same,GI50,HT-29,> 100 µM (inactive)
same,GI50,OVCAR-5,> 100 µM (inactive)
same,GI50,LOX IMVI,> 100 µM (inactive)
same,GI50,HOP-62,> 100 µM (inactive)
same,GI50,SNB-19,> 100 µM (inactive)
same,GI50,NCI-H226,> 71.1 µM (inactive)
same,GI50,SK-MEL-28,> 100 µM (inactive)
same,GI50,SF-539,> 100 µM (inactive)
same,GI50,SW-620,> 100 µM (inactive)
same,GI50,Malme-3M,> 100 µM (inactive)
same,GI50,OVCAR-4,> 100 µM (inactive)
same,GI50,IGROV-1,> 100 µM (inactive)
same,GI50,SK-MEL-5,> 100 µM (inactive)
same,GI50,MOLT-4,> 100 µM (inactive)
same,GI50,SNB-75,56.2 µM (inactive)
CN(C)CC(CC1=C(CC(CN(C)C)N(C)C)CCC1)N(C)C (stereo unspecified),GI50,UO-31,> 100 µM (inactive)
same,GI50,DLD-1,> 100 µM (inactive)
same,GI50,HCT-15,> 100 µM
same,GI50,RPMI-8226,> 100 µM (inactive)
same,GI50,OVCAR-8,> 100 µM (inactive)
same,GI50,SF-268,> 100 µM (inactive)
same,GI50,SK-MEL-2,> 100 µM (inactive)
same,GI50,M19-MEL,> 100 µM (inactive)
same,GI50,HCT-116,> 100 µM (inactive)
same,GI50,DMS-273,> 100 µM (inactive)
same,GI50,K562,> 100 µM (inactive)
same,GI50,NCI/ADR-RES,> 100 µM (inactive)
same,GI50,SN12C,> 100 µM (inactive)
same,GI50,UACC-62,> 100 µM (inactive)
same,GI50,DMS-114,> 100 µM (inactive)
same,GI50,KM12,> 100 µM (inactive)
same,GI50,HCC 2998,> 100 µM (inactive)
same,GI50,SF-295,> 100 µM (inactive)
same,GI50,HL-60,> 100 µM (inactive)
same,GI50,CCRF-CEM,> 100 µM (inactive)
same,GI50,EKVX,> 100 µM (inactive)
same,GI50,MCF7,> 100 µM (inactive)
same,GI50,XF498,> 100 µM (inactive)
same,GI50,CAKI-1,> 100 µM (inactive)
same,GI50,KM-20L2,> 100 µM (inactive)
same,GI50,A549,> 100 µM (inactive)
same,GI50,NCI-H460,> 100 µM (inactive)
same,GI50,SK-OV-3,> 100 µM (inactive)
same,GI50,RXF 393,> 100 µM (inactive)
same,GI50,HOP-18,> 100 µM (inactive)
same,GI50,COLO 205,> 100 µM (inactive)
same,GI50,A498,> 100 µM (inactive)
same,GI50,NCI-H23,> 100 µM (inactive)
same,GI50,U-251,> 100 µM (inactive)
same,GI50,NCI-H522,> 100 µM (inactive)
same,GI50,UACC-257,> 100 µM (inactive)
same,GI50,OVCAR-3,> 100 µM (inactive)
same,GI50,HOP-92,> 100 µM (inactive)
same,GI50,HT-29,> 100 µM (inactive)
same,GI50,OVCAR-5,> 100 µM (inactive)
same,GI50,LOX IMVI,> 100 µM (inactive)
same,GI50,HOP-62,> 100 µM (inactive)
same,GI50,SNB-19,> 100 µM (inactive)
same,GI50,NCI-H226,> 100 µM (inactive)
same,GI50,SK-MEL-28,> 100 µM (inactive)
same,GI50,SF-539,> 100 µM (inactive)
same,GI50,SW-620,> 100 µM (inactive)
same,GI50,Malme-3M,> 100 µM (inactive)
same,GI50,OVCAR-4,> 100 µM (inactive)
same,GI50,IGROV-1,> 100 µM (inactive)
same,GI50,SK-MEL-5,> 100 µM (inactive)
same,GI50,MOLT-4,> 100 µM (inactive)
same,GI50,SNB-75,> 100 µM (inactive)
